Results as given in patent US20180201647A1, “Peptoid” (The University of Durham, priority 2015, published 2018).
pIC50: −log10 of the molar value. Like-named read-outs stand apart in the source and are kept apart here. *1 amine or outer side, *2 acyl side, *3 side chain or, on linkers, in order; H or OH if unused. Where a SMILES comes first, the peptide text is derived from it. [ ]: non-standard residue; d: D form. Gly(N-2-aminoethyl) = NCCNCC(=O)O; X1 = N=C(N)NCCN(CC(=O)[*:2])[*:1]; Nspe = C[C@H](NCC(=O)O)c1ccccc1; NhArg = N=C(N)NCCCCNCC(=O)O; Nlys = NCCCCNCC(=O)O

How the values were obtained:
Format in all cases: cell-based
[1] = tested on: T. cruzi Tulahuen strain C2C4; test: microbe, parasite or virus in culture
Experimental: Rat skeletal myoblasts (L-6 cells) were seeded in 96-well microtitre plates at 2000 cells/well in 100 μL RPMI 1640 medium with 10% FBS and 2 mM 1-glutamine. After 24 h the medium was removed and replaced by 100 μl per well containing 5000 trypomastigote forms of T. cruzi Tulahuen strain C2C4 containing the β-galactosidase (Lac Z) gene. After 48 h the medium was removed from the wells and replaced by 100 μl fresh medium with or without a serial drug dilution of eleven 3-fold dilution steps covering a range from 100 to 0.002 μg/ml. After 96 h of incubation the plates were inspected under an inverted microscope to assure growth of the controls and sterility. Then the substrate CPRG/Nonidet (50 μl) was added to all wells. A color reaction developed within 2-6 h and could be read photometrically at 540 nm. Data were analyzed with the graphic programme Softmax Pro (Molecular Devices), which calculated IC50 values by linear regression from the sigmoidal dose inhibition curves. Benznidazole is used as control (IC50 0.5+0.2 μg/ml).

[2] = tested on: Pseudomonas aeruginosa laboratory strain PAO2
Experimental: (§1) Species used in MIC assays included gram-negative Escherichia coli K12 W3110, Pseudomonas aeruginosa laboratory strain PAO2 and Serratia marcescens laboratory strain and gram-positive Staphylococcus aureus NCTC 6571 and Micrococcus luteus laboratory strain.
(§2) Bacterial cultures were prepared by streaking the bacterial strains on to agar plates with an inoculation loop and incubating overnight at 37° C. A single colony was then selected and placed in 5 mL of Iso-Sensitest broth using an inoculation loop and incubated at 37° C. with shaking overnight.
(§3) MIC values were attained according to the protocol described by J. M. Andrews et al. [J. M. Andrews, J. Antimicrob. Chemother., 2001, 48, 5-16] and were conducted in 96-well microtitre plates in triplicate. 10-50 μL of each overnight culture was inoculated into 1.2 mL of Iso-Sensitest broth and grown at 37° C. with shaking. […] The inoculum was diluted ten-fold with Iso-Sensitest broth before use (to ˜10^3 cfu/spot). Peptide solutions were initially dissolved in DMSO (5 mg mL^−1) and then diluted further with Iso-Sensitest broth to achieve a concentration range of 4 mgL^−1 to 512 mgL^−1 using 2-fold serial dilutions. Samples were vortexed between dilutions where necessary to aid dissolution. 50 μL of inoculum and 50 μL of peptide solution were added to each test well to achieve a final concentration range of 2 mgL^−1 to 256 mgL^−1. Separate dilutions of ampicillin and DMSO were made up in a similar manner to act as a positive antibacterial control and a +DMSO control, respectively. 50 μL of inoculum and 50 μL of Iso-Sensitest broth were used as a positive control and 100 μL of inoculum was used as a negative control. Positive and negatives controls were conducted multiple times in parallel per plate. […] Quantitative data were attained as A650nm values using a BioTek® Synergy™ H4 Hybrid Multi-Mode Microplate Reader.

[3] = tested on: Staphylococcus aureus NCTC 6571
Experimental: as §1, §2, §3

[4] = tested on: Escherichia coli K12 W3110
Experimental: as §1, §2, §3

[5] = tested on: Serratia marcescens laboratory strain; settings: 16 h
Experimental: as §1, §2, §3

[6] = tested on: S. aureus (NCTC 6571) biofilm; test: Single species biofilm treatment, crystal violet assay; settings: 100 μM peptoid, 24 hours, FIG. 17B
Experimental: C. albicans (NCTC 3179) was subcultured aerobically on Sabouraud agar plates and propagated in yeast peptone dextrose broth. E. coli (ATCC 29522) and S. aureus (NCTC 6571) were grown on blood agar plates and propagated in brain heart infusion (BHI) broth.
Overnight cultures of C. albicans were washed and resuspended in a modified RPMI-1640 (Sigma-Aldrich, St Louis, USA) medium to yield an inoculum of 1.0×10^6 cells/ml. Overnight cultures of S. aureus or E. coli were washed and resuspended in brain heart infusion broth (Oxoid, Basingstoke, UK) to yield an inoculum of 5.0×10^6 cells/ml. A total volume of 100 μl of each inoculum was added to microtitre plate wells (Thermo Fisher Scientific, Roskilde, Denmark). An initial biofilm was allowed to form for 4 hours. Wells were washed three times with 200 μl PBS to facilitate removal of planktonic cells and the biofilms were then treated with 100 μM of peptoids 1-4 in the appropriate broth. Plates were incubated for a further 24 hours to allow biofilm maturation. After removal of planktonic cells by washing, biofilms were quantified by the crystal violet assay or by PMA-qPCR.
Biofilm quantification by crystal violet assay Washed biofilms were fixed with 100 μl methanol for 10 minutes. Following removal of methanol, the wells were air dried and stained with crystal violet solution (Clin-Tech Ltd, Guildford, UK) for 20 minutes at room temperature. Excess stain was removed by washing, the plate was then air dried and bound crystal violet was re-solubilised in 16 μl 33% acetic acid prior to reading at 570 nm in a microtitre plate reader (Tecan GENios, Ziirich, Switzerland).

[7] = tested on: L. donovani strain MHOM/ET/67/L82 axenic amastigotes
Experimental: Amastigotes of L. donovani strain MHOM/ET/67/L82 were grown in axenic culture at 37° C. in SM medium^24 at pH 5.4 supplemented with 10% heat-inactivated fetal bovine serum under an atmosphere of 5% CO2 in air. One hundred microlitres of culture medium with 10^5 amastigotes from axenic culture with or without a serial drug dilution were seeded in 96-well microtitre plates. Serial drug dilutions of eleven 3-fold dilution steps covering a range from 90 to 0.002 μg/ml were prepared. After 70 h of incubation the plates were inspected under an inverted microscope to assure growth of the controls and sterile conditions. 10 μl of Alamar Blue (12.5 mg resazurin dissolved in 100 ml distilled water) were then added to each well and the plates incubated for another 2 h. Then the plates were read with a Spectramax Gemini XS microplate fluorometer (Molecular Devices Cooperation, Sunnyvale, Calif., USA) using an excitation wave length of 536 nm and an emission wave length of 588 nm. Data were analyzed using the software Softmax Pro (Molecular Devices Cooperation, Sunnyvale, Calif., USA). Decrease of fluorescence (=inhibition) was expressed as percentage of the fluorescence of control cultures and plotted against the drug concentrations. From the sigmoidal inhibition curves the IC50 values were calculated.

[8] = tested on: erythrocytic stages of P. falciparum
Experimental: In vitro activity against erythrocytic stages of P. falciparum was determined using a 3H-hypoxanthine incorporation assay using the drug sensitive NF54 strain (Schipol airport) or the chloroquine and pyrimethamine resistant K1 strain that originate from Thailand and the standard drug chloroquine (Sigma C6628). Compounds were dissolved in DMSO at 10 mg/ml and added to parasite cultures incubated in RPMI 1640 medium without hypoxanthine, supplemented with HEPES (5.94 g/l), NaHCO3 (2.1 g/1), neomycin (100 U/ml), Albumax® (5 g/l) and washed human red cells A^+ at 2.5% haematocrit (0.3% parasitaemia). Serial drug dilutions of eleven 3-fold dilution steps covering a range from 100 to 0.002 μg/ml were prepared. The 96-well plates were incubated in a humidified atmosphere at 37° C.; 4% CO2, 3% O2, 93% N2. After 48 h 50 μl of 3H-hypoxanthine (=0.5 μCi) was added to each well of the plate. The plates were incubated for a further 24 h under the same conditions. The plates were then harvested with a Betaplate™ cell harvester (Wallac, Zurich, Switzerland), and the red blood cells transferred onto a glass fibre filter then washed with distilled water. The dried filters were inserted into a plastic foil with 10 ml of scintillation fluid, and counted in a Betaplate™ liquid scintillation counter (Wallac, Zurich, Switzerland). IC50 values were calculated from sigmoidal inhibition curves by linear regression using Microsoft Excel. Chloroquine and artemisinin are used as control.

[9] = tested on: Trypanosoma brucei rhodesiense STIB900
Experimental: This stock was isolated in 1982 from a human patient in Tanzania and after several mouse passages cloned and adapted to axenic culture conditions. Minimum Essential Medium (50 μl) supplemented with 25 mM HEPES, 1 g/l additional glucose, 1% MEM non-essential amino acids (100×), 0.2 mM 2-mercaptoethanol, 1 mM Na-pyruvate and 15% heat inactivated horse serum was added to each well of a 96-well microtiter plate. Serial drug dilutions of eleven 3-fold dilution steps covering a range from 100 to 0.002 μg/ml were prepared. Then 4×10^3 bloodstream forms of T. b. rhodesiense STIB 900 in 50 μl was added to each well and the plate incubated at 37° C. under a 5% CO2 atmosphere for 70 h. 10 μl Alamar Blue (resazurin, 12.5 mg in 100 ml double-distilled water) was then added to each well and incubation continued for a further 2-4 h. Then the plates were read with a Spectramax Gemini XS microplate fluorometer (Molecular Devices Cooperation, Sunnyvale, Calif., USA) using an excitation wave length of 536 nm and an emission wave length of 588 nm. The IC50 values were calculated by linear regression from the sigmoidal dose inhibition curves using SoftmaxPro software (Molecular Devices Cooperation, Sunnyvale, Calif., USA). Melarsoprol (Arsobal Sanofi-Aventis, received from WHO) is used as control.

[10] = second figure of cell, 37° C., 16 h, Iso-Sensitest broth

O=C(Cn1ccnc1[N+](=O)[O-])NCc1ccccc1 [Benznidazole, reference compound]
IC50 ([1]; Trypanosoma cruzi, TULAHUEN, L6, control drug, in L-6 cells, 96 h, read-out: IC50 T. cruzi, control): 0.5 µg/mL

C[C@@H](c1ccccc1)N(CC(N)=O)C(=O)CN(C(=O)CN(CCCCN)C(=O)CN(C(=O)CN(C(=O)CN(CCCCN)C(=O)CN(C(=O)CN(C(=O)CN(CCCCNC(=N)N)C(=O)CN(C(=O)CN(C(=O)CNCCCCN)[C@@H](C)c1ccccc1)[C@@H](C)c1ccccc1)[C@@H](C)c1ccccc1)[C@@H](C)c1ccccc1)[C@@H](C)c1ccccc1)[C@@H](C)c1ccccc1)[C@@H](C)c1ccccc1 [Peptoid 3, (NLys-Nspe-Nspe)(NhArg-Nspe-Nspe)(NLys-Nspe-Nspe)2] (H-[Nlys][Nspe][Nspe][NhArg][Nspe][Nspe][Nlys][Nspe][Nspe][Nlys][Nspe][Nspe]-NH2; N-terminus assumed)
MIC P. aeruginosa ([2]; laboratory strain PAO2, 16 h): 17 µM | MIC P. aeruginosa [2, 10]: 32 mgL^−1 | MIC S. aureus ([3]; NCTC 6571, 16 h): 17 µM | MIC S. aureus [3, 10]: 32 mgL^−1 | MIC E. coli ([4]; K12, 16 h): 17 µM | MIC E. coli [4, 10]: 32 mgL^−1 | MIC S. marcescens ([5]; laboratory strain): 134 µM | MIC S. marcescens ([5]; second figure of cell, 37° C., Iso-Sensitest broth): 256 mgL^−1 | activity against the S. aureus biofilm [6]: strongest anti-bacterial activity

C[C@@H](c1ccccc1)N(CC(N)=O)C(=O)CN(C(=O)CN(CCN)C(=O)CN(C(=O)CN(C(=O)CN(CCNC(=N)N)C(=O)CN(C(=O)CN(C(=O)CN(CCN)C(=O)CN(C(=O)CN(C(=O)CNCCNC(=N)N)[C@@H](C)c1ccccc1)[C@@H](C)c1ccccc1)[C@@H](C)c1ccccc1)[C@@H](C)c1ccccc1)[C@@H](C)c1ccccc1)[C@@H](C)c1ccccc1)[C@@H](C)c1ccccc1 [Peptoid 6, [(NnArgNspeNspe)(NaeNspeNspe)]2] (H-[X1][Nspe][Nspe][Gly(N-2-aminoethyl)][Nspe][Nspe][X1][Nspe][Nspe][Gly(N-2-aminoethyl)][Nspe][Nspe]-NH2; N-terminus assumed)
active against L. donovani ([7]; statement in words): active | pIC50 ([7]; strain MHOM/ET/67/L82 axenic amastigotes, 70 h): 5.02 | active against P. falciparum ([8]; statement in words): active | pIC50 ([8]; strain (NF54 or K1) not given): 6.00 | pIC50 ([1]; in L-6 cells, 96 h, read-out: IC50 T. cruzi): 5.18 | active against T. cruzi ([1]; statement in words): active | pIC50 ([9]; 70 h): 5.19 | active against T. brucei rhodesiense ([9]; statement in words): active
